For assay [1], the target named is Human TASK-1 channels (Homo sapiens (Human), UniProt O14649). As to the kind of experiment: Activity on the TASK-1 channel in Xenopus oocytes (two-microelectrode voltage clamp). In kind it is cell-based. As to conditions: for IC50: human TASK-1 expressed in Xenopus oocytes, currents during 500 ms pulses to 40 mV, room temperature; for inhibition at 5 µM: percentage inhibition of TASK-1 control current, Xenopus oocytes. On the procedure:
Determination of the activity on the TASK-1 channel in Xenopus oocytes:
Human TASK-1 channels were expressed in Xenopus oocytes. For this purpose, oocytes were isolated from Xenopus laevis and defolliculated. Subsequently, TASK-1-encoding RNA synthesized in vitro was injected into oocytes. After two days of TASK-1 protein expression, TASK-1 currents were measured by two-microelectrode voltage clamp. Data were acquired and analyzed using a TEC-10cx amplifier (NPI Electronic, Tamm, Germany) connected to an ITC-16 interface (Instrutech Corp., Long Island, USA) and Pulse software (HEKA Elektronik, Lambrecht, Germany). Oocytes were clamped to −90 mV and TASK-1 mediated currents were measured during 500 ms voltage pulses to 40 mV. Oocytes were continuously superfused with ND96 buffer containing: NaCl 96 mM, KCl2 mM, CaCl2 1.8 mM, MgCl2 1 mM, HEPES 5 mM (pH adjusted to 7.4 with NaOH). All experiments were performed at room temperature.
Test substances were consecutively added to the bath solution at rising concentrations. Compound effects were calculated as the percentage inhibition of
TASK-1 control current before compound application. IC50 values were obtained by fitting the data to the general dose-response equation.

For assay [2], the system named is left atrium of the anesthetized pig. The experiment in a line: Refractory period and left-atrial vulnerability in the anesthetized pig. In kind it is in vivo. As to conditions: bolus 1 mg/kg, n = 2. On the procedure:
Investigation of the refractory period and the left-atrial vulnerability in the pig:
The compounds were tested for prolongation of the refractory period and antiarrhythmic activity on the atrium of the anesthetized pig as described in the literature (Knobloch et al. 2002. Naunyn-Schmiedberg's Arch. Pharmacol. 366; 482-487). Here the anti-arrhythmic action relates to the inhibition of the occurrence of episodes of arrhythmias which are induced by a prematurely placed extra-stimulus (S2) in the left atrium (=left-atrial vulnerability). The refractory period values are stated in percent of the basal values 15 minutes after injection. Mean values for the refractory periods are shown from three rates (150, 200 and 250/min). The inhibitory values for the inhibition of episodes of arrhythmias refer to 3 measurements (3 timepoints) before administration vs. 3 measurements during the first hour after administration of the compounds.
The action of 3-[5-Acetyl-1-((1R,2R)-6-chloro-4-fluoro-2-hydroxy-indan-1-yl)-4,5,6,7-tetrahydro-1H-pyrazolo[4,3-c]pyridin-3-yl]-benzonitrile (11j) on the refractory period of the left atrium and antiarrhythmic activity in the anesthetized pig after a bolus administration of 1 mg/kg is shown in table 12. From the results shown in table 12, it is seen that it was possible to prevent 82% of the induced arrhythmias.

Sequence of Human TASK-1 channels (O14649 whole entry): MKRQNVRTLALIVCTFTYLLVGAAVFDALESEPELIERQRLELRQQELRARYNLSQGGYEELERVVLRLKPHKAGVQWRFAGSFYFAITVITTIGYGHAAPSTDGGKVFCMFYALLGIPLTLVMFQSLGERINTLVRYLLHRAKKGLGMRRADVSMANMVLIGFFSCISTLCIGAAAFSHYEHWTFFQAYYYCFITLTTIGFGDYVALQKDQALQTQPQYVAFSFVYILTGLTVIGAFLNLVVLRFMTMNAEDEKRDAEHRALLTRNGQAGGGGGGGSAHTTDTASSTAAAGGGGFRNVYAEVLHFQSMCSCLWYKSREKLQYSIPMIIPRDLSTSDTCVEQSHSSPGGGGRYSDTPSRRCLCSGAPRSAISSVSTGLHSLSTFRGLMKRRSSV

With `CC(=O)N1CCc2c(c(-c3cccc(C#N)c3)nn2[C@@H]2c3cc(Cl)cc(F)c3C[C@H]2O)C1` [Example 11j, 3-[5-Acetyl-1-((1R,2R)-6-chloro-4-fluoro-2-hydroxy-indan-1-yl)-4,5,6,7-tetrahydro-1H-pyrazolo[4,3-c]pyridin-3-yl]-benzonitrile], in assay [1], the IC50 was 439 nM. Moreover, in assay [2] (S2-induced left-atrial arrhythmias, first hour after administration), the “% inhibition of the arrhythmias” value is reported as 82%. In addition, the “% increase in the refractory period” value in assay [2] (left atrium, 15 minutes after injection, mean of three rates (150, 200 and 250/min)) turned out to be 20%.

In turn, `CC(=O)N1CCc2c(c(-c3cccc(C#N)c3)nn2[C@@H]2c3cc(F)cc(C4CC4)c3C[C@H]2O)C1` [Example 20a, 3-[5-Acetyl-1-((1R,2R)-4-cyclopropyl-6-fluoro-2-hydroxy-indan-1-yl)-4,5,6,7-tetrahydro-1H-pyrazolo[4,3-c]pyridin-3-yl]-benzonitrile] yielded an IC50 in assay [1] of 500 nM. Take `CC(=O)N1CCc2c(c(-c3cccc(C#N)c3)nn2[C@@H]2c3cc(F)cc(Cl)c3C[C@H]2O)C1` [Example 21a, 3-[5-Acetyl-1-((1R,2R)-4-chloro-6-fluoro-2-hydroxy-indan-1-yl)-4,5,6,7-tetrahydro-1H-pyrazolo[4,3-c]pyridin-3-yl]-benzonitrile]: 393 nM corresponded to half-maximal inhibition in assay [1] (IC50).

In assay [1], `CSc1cc(F)cc2c1C[C@@H](O)[C@@H]2n1nc(-c2cccc(C#N)c2)c2c1CCN(C(C)=O)C2` [Example 21c, 3-[5-Acetyl-1-((1R,2R)-6-fluoro-2-hydroxy-4-methylsulfanyl-indan-1-yl)-4,5,6,7-tetrahydro-1H-pyrazolo[4,3-c]pyridin-3-yl]-benzonitrile] gave an inhibition at 5 µM of 87%.

In assay [1], `CCNC(=O)N1CCc2c(c(-c3cccc(C#N)c3)nn2[C@@H]2c3cc(Cl)cc(Cl)c3C[C@H]2O)C1` [Example 22a, 3-(3-Cyano-phenyl)-1-((1R,2R)-4,6-dichloro-2-hydroxy-indan-1-yl)-1,4,6,7-tetrahydro-pyrazolo[4,3-c]pyridine-5-carboxylic acid ethylamide] showed an IC50 of 180 nM. Turning to `CS(=O)(=O)N1CCc2c(c(-c3cccc(C#N)c3)nn2[C@@H]2c3cc(Cl)cc(Cl)c3C[C@H]2O)C1` [Example 23a, 3-[1-((1R,2R)-4,6-Dichloro-2-hydroxy-indan-1-yl)-5-methanesulfonyl-4,5,6,7-tetrahydro-1H-pyrazolo[4,3-c]pyridin-3-yl]-benzonitrile], the inhibition at 5 µM in assay [1] amounted to 80%.

The record behind these values is US9034897B2, “Indanyl-substituted 4,5,6,7-tetrahydro-1H-pyrazolo[4,3-C]pyridines, their use as medicament, and pharmaceutical preparations comprising them” (SANOFI, priority 2011, dated 2015).
